Measurements taken from patent US11780826B2 (Amgen Inc., priority 2017, dated 2023).

System: Bovine cardiac myofibrils
Assay: In vitro model of dose-dependent myofibril ATPase modulation (AC1.4, pyruvate kinase/lactate dehydrogenase-coupled ATPase assay at pCa25)
Format: biochemical
Details: concentration at which ATPase activity was 1.4-fold higher than the bottom of the dose curve, mean of a minimum of two independent tests
In short: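 Compound dilutions were premixed with myofibrils, coupling enzymes, EGTA and CaCl2, then the reaction was started with an equal volume carrying ATP (final 1 mM), NADH and PEP. ATP turnover was followed at 340 nm, and dose responses were fit to a four-parameter equation.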

Row | Structure (SMILES) | AC1.4
1 | CS(=O)(=O)c1cccc(C(=O)N2C(=O)OC[C@@H]2C(=O)N[C@@H](c2ccc(C(F)(F)F)cc2F)C2CC2)c1 [Example 543, (4R)-N-((R)-cyclopropyl(2-fluoro-4-(trifluoromethyl)phenyl)methyl)-3-(3-(methylsulfonyl)benzoyl)-2-oxo-1,3-oxazolidine-4-carboxamide] | 2.813 µM
2 | Cc1cc(C(=O)N2[C@@H](C(=O)N[C@@H](c3ccc(C(F)(F)F)cc3F)C3CC3)C[C@H]3C[C@H]32)c(NCCO)cn1 [Example 545, (1R,3R,5R)-N-((R)-cyclopropyl(2-fluoro-4-(trifluoromethyl)phenyl)methyl)-2-((5-((2-hydroxyethyl)amino)-2-methyl-4-pyridinyl)carbonyl)-2-azabicyclo[3.1.0]hexane-3-carboxamide] | 2.818 µM
3 | CS(=O)(=O)c1cccc(C(=O)N2C[C@@H](F)C[C@@H]2C(=O)N[C@@H](c2ccc(C(F)(F)F)cc2)C2COC2)c1 [Example 546, (4S)-4-fluoro-1-(3-(methylsulfonyl)benzoyl)-N-((R)-3-oxetanyl(4-(trifluoromethyl)phenyl)methyl)-D-prolinamide] | 2.6257 µM
4 | O=C(N[C@@H](c1ccc(C(F)(F)F)cc1F)C1CC1)[C@H]1C[C@H]2C[C@H]2N1C(=O)c1cccc(C(O)C(F)(F)F)c1 (stereo partly drawn) [Example 547, (1R,3R,5R)-N-((R)-cyclopropyl(2-fluoro-4-(trifluoromethyl)phenyl)methyl)-2-(3-(2,2,2-trifluoro-1-hydroxyethyl)benzoyl)-2-azabicyclo[3.1.0]hexane-3-carboxamide] | 2.836 µM
5 | CS(=O)(=O)c1cncc(C(=O)N2[C@@H](C(=O)N[C@@H](c3ccc(C(F)(F)F)c(F)c3)C3CC3)C[C@H]3C[C@H]32)c1 [Example 548, (1R,3R,5R)-N-((R)-cyclopropyl(3-fluoro-4-(trifluoromethyl)phenyl)methyl)-2-((5-(methylsulfonyl)-3-pyridinyl)carbonyl)-2-azabicyclo[3.1.0]hexane-3-carboxamide] | 2.66 µM
6 | CS(=O)(=O)c1cccc(C(=O)N2CCSCC2C(=O)N[C@@H](c2ccc(C(F)(F)F)cc2F)C2CC2)c1 (stereo partly drawn) [Example 552, N-((R)-cyclopropyl(2-fluoro-4-(trifluoromethyl)phenyl)methyl)-4-(3-(methylsulfonyl)benzoyl)thiomorpholine-3-carboxamide] | 2.854 µM
7 | O=C(N[C@@H](c1ccc(C(F)(F)F)cc1F)C1CC1)[C@H]1C[C@H]2C[C@H]2N1C(=O)c1ccccc1NC(=O)C(F)(F)F [Example 553, (1R,3R,5R)-N-((R)-cyclopropyl(2-fluoro-4-(trifluoromethyl)phenyl)methyl)-2-(2-(2,2,2-trifluoroacetamido)benzoyl)-2-azabicyclo[3.1.0]hexane-3-carboxamide] | 2.873 µM
8 | CCc1ccnc(C(=O)N2[C@@H](C(=O)N[C@@H](c3cc(F)c(Cl)cc3F)C3COC3)C[C@H]3C[C@H]32)c1 [Example 555, (1R,3R,5R)-N-((R)-(4-chloro-2,5-difluorophenyl)(3-oxetanyl)methyl)-2-((4-ethyl-2-pyridinyl)carbonyl)-2-azabicyclo[3.1.0]hexane-3-carboxamide] | 2.893 µM
9 | O=C(N[C@@H](c1ccc(C(F)(F)F)cc1F)C1CC1)[C@H]1CCCN1C(=O)c1cccc(C(O)C(F)(F)F)c1 (stereo partly drawn) [Example 556, (2R)-N-((R)-cyclopropyl(2-fluoro-4-(trifluoromethyl)phenyl)methyl)-1-(3-(2,2,2-trifluoro-1-hydroxyethyl)benzoyl)pyrrolidine-2-carboxamide] | 2.9075 µM
10 | CS(=O)(=O)c1cccc(C(=O)N2[C@@H](C(=O)N[C@@H](c3ccc(C(F)(F)F)cc3F)C3(O)CC3)C[C@H]3C[C@H]32)c1 [Example 559, (1R,3R,5R)-N-((S)-(2-fluoro-4-(trifluoromethyl)phenyl)(1-hydroxycyclopropyl)methyl)-2-(3-(methylsulfonyl)benzoyl)-2-azabicyclo[3.1.0]hexane-3-carboxamrde] | 2.7115 µM
11 | NS(=O)(=O)c1ccc(F)c(C(=O)N2CCC[C@@H]2C(=O)N[C@@H](c2ccc(C(F)(F)F)cc2F)C2CC2)c1 [Example 566, N-((R)-cyclopropyl(2-fluoro-4-(trifluoromethyl)phenyl)methyl)-1-(2-fluoro-5-sulfamoylbenzoyl)-D-prolinamide] | 3.0845 µM
12 | CS(=O)(=O)c1cccc(C(=O)N2[C@@H](C(=O)N[C@@H](c3cc(F)c(C#N)cc3F)C3CC3)C[C@H]3C[C@H]32)c1 [Example 570, (1R,3R,5R)-N-((R)-(4-cyano-2,5-difluorophenyl)(cyclopropyl)methyl)-2-(3-(methylsulfonyl)benzoyl)-2-azabicyclo[3.1.0]hexane-3-carboxamide] | 3.1825 µM

Other lines, results leading:

Row | AC1.4 | Structure (SMILES)
13 | 2.8175 µM | Cc1ccc(CNC(=O)[C@H]2CCCN2C(=O)[C@H]2CCCN(S(=O)(=O)N3CC(C#N)C3)C2)cc1C(F)(F)F [Example 544, 1-(((3S)-1-((3-cyano-1-azetidinyl)sulfonyl)-3-piperidinyl)carbonyl)-N-(4-methyl-3-(trifluoromethyl)benzyl)-D-prolinamide]
14 | 2.8405 µM | N#CC1CN(S(=O)(=O)N2CCC[C@H](C(=O)N3CCC[C@@H]3C(=O)NCc3cc(Cl)ccc3F)C2)C1 [Example 549, N-(5-chloro-2-fluorobenzyl)-1-(((3S)-1-((3-cyano-1-azetidinyl)sulfonyl)-3-piperidinyl)carbonyl)-D-prolinamide]
15 | 2.8425 µM | CS(=O)(=O)c1ccc(N2CC(C#N)C2)c(C(=O)N2CCC[C@@H]2C(=O)N[C@@H](c2ccc(C(F)(F)F)cc2F)C2CC2)c1 [Example 550, (R)-1-(2-(3-cyanoazetidin-1-yl)-5-(methylsulfonyl)benzoyl)-N—((R)-cyclopropyl(2-fluoro-4-(trifluoromethyl)phenyl)methyl)pyrrolidine-2-carboxamide]
16 | 2.8435 µM | N#Cc1ccc(CNC(=O)[C@H]2CCCN2C(=O)[C@H]2CCCN(S(=O)(=O)N3CC(C#N)C3)C2)cc1 [Example 551, 1-(((3S)-1-((3-cyano-1-azetidinyl)sulfonyl)-3-piperidinyl)carbonyl)-N-(4-cyanobenzyl)-D-prolinamide]
17 | 2.688 µM | CCOc1ccc(S(C)(=O)=O)cc1C(=O)N1CCC[C@@H]1C(=O)N[C@@H](c1ccc(C(F)(F)F)cc1F)C1CC1 [Example 554, N-((R)-cyclopropyl(2-fluoro-4-(trifluoromethyl)phenyl)methyl)-1-(2-ethoxy-5-(methylsulfonyl)benzoyl)-D-prolinamide]
18 | 2.9265 µM | COc1ccc(CNC(=O)[C@H]2CCCN2C(=O)[C@H]2CCCN(S(=O)(=O)N3CC(C#N)C3)C2)c(F)c1 [Example 557, 1-(((3S)-1-((3-cyano-1-azetidinyl)sulfonyl)-3-piperidinyl)carbonyl)-N-(2-fluoro-4-methoxybenzyl)-D-prolinamide]
19 | 2.9638 µM | O=C(NCc1ccc(C(F)(F)F)cc1)[C@H]1CCCN1C(=O)c1cccc(S(=O)(=O)N2CC[C@@H](O)C2)c1 [Example 560, 1-((3-(((3R)-3-hydroxy-1-pyrrolidinyl)sulfonyl)phenyl)carbonyl)-N-(4-(trifluoromethyl)benzyl)-D-prolinamide,1-((3-(((3S)-3-hydroxy-1-pyrrolidinyl)sulfonyl)phenyl)carbonyl)-N-(4-(trifluoromethyl)benzyl)-D-prolinamide]
20 | 2.9935 µM | N#CC1CN(S(=O)(=O)N2CCC[C@H](C(=O)N3CCC[C@@H]3C(=O)N[C@@H](CO)c3ccc(C(F)(F)F)cc3)C2)C1 [Example 561, 1-(((3S)-1-((3-cyano-1-azetidinyl)sulfonyl)-3-piperidinyl)carbonyl)-N-((1R)-2-hydroxy-1-(4-(trifluoromethyl)phenyl)ethyl)-D-prolinamide]
21 | 3.025 µM | O=C(NCc1ccc(C(F)(F)F)cc1)[C@H]1CCCN1C(=O)[C@H]1CCCN(S(=O)(=O)N2CC(n3ccnc3)C2)C1 [Example 562, 1-(((3S)-1-((3-(1H-imidazol-1-yl)-1-azetidinyl)sulfonyl)-3-piperidinyl)carbonyl)-N-(4-(trifluoromethyl)benzyl)-D-prolinamide]
22 | 2.8195 µM | CS(=O)(=O)c1ccc(F)c(C(=O)N2CCC[C@@H]2C(=O)N[C@@H](c2ccc(C(F)(F)F)cc2F)C2CC2)c1F [Example 563, N-((R)-cyclopropyl(2-fluoro-4-(trifluoromethyl)phenyl)methyl)-1-(2,6-difluoro-3-(methylsulfonyl)benzoyl)-D-prolinamide]
23 | 3.077 µM | CCN(CC)S(=O)(=O)c1cccc(C(=O)N2CCC[C@@H]2C(=O)NCc2ccc(C(F)(F)F)cc2)c1 [Example 564, 1-(3-(diethylsulfamoyl)benzoyl)-N-(4-(trifluoromethyl)benzyl)-D-prolinamide]
24 | 3.077 µM | N#CC1CN(S(=O)(=O)N2CCC[C@H](C(=O)N3CCC[C@@H]3C(=O)N[C@H]3Cc4ccccc43)C2)C1 [Example 565, N-((7S)-bicyclo[4.2.0]octa-1,3,5-trien-7-yl)-1-(((3S)-1-((3-cyano-1-azetidinyl)sulfonyl)-3-piperidinyl)carbonyl)-D-prolinamide]
25 | 3.1075 µM | CS(=O)(=O)c1ccc(C(=O)N2CCC[C@@H]2C(=O)NC(c2ccc(C(F)(F)F)cc2F)C2CC2)s1 (stereo partly drawn) [Example 567, (2R)-N-(cyclopropyl(2-fluoro-4-(trifluoromethyl)phenyl)methyl)-1-(5-(methylsulfonyl)thiophene-2-carbonyl)pyrrolidine-2-carboxamide]
26 | 3.182 µM | CS(=O)(=O)c1ccc(C(=O)N2CCC[C@@H]2C(=O)NC(c2ccc(C(F)(F)F)cc2F)C2CC2)cn1 (stereo partly drawn) [Example 569, (2R)-N-(cyclopropyl(2-fluoro-4-(trifluoromethyl)phenyl)methyl)-1-(6-(methylsulfonyl)nicotinoyl)pyrrolidine-2-carboxamide]
27 | 3.1845 µM | Cc1ccccc1CNC(=O)[C@H]1CCCN1C(=O)[C@H]1CCCN(S(=O)(=O)N2CC(C#N)C2)C1 [Example 571, 1-(((3S)-1-((3-cyano-1-azetidinyl)sulfonyl)-3-piperidinyl)carbonyl)-N-(2-methylbenzyl)-D-prolinamide]
